Experimental data as given in patent publication US20230355727A1, “TREATMENT OF RETINAL DISORDERS” (Tel HaShomer Medical Research Infrastructure and Services …, priority 2020, published 2023).
“Also recorded” adds a separate entry of the source. Peptide text beside a SMILES is read from it. * marks the point of attachment. Tos = Cc1ccc(S(=O)(=O)*)cc1; CH2Cl = ClC*

Key:
diabetic rats = conditions: STZ-induced diabetes; Shavit-Stein et al. PLoS One 2019; cited from earlier work
glioma cell lines = conditions: inhibition of thrombin activity and blocking PAR1 activation; Shavit-Stein et al. 2018; cited from earlier work
[1] = system: STZ-induced diabetic C57BL/6 mice; test: Retinal function by ERG in STZ-induced diabetic mice; type: in vivo, mouse
Experimental: Diabetes induction: Diabetes was induced in mice at age of 8 weeks by a single intraperitoneal injection of 150 mg/Kg STZ (Sigma-Aldrich). Blood glucose concentration was measured from the tail vein using Xpress-i glucometer (Nova Biomedical). Hyperglycemia was defined as blood glucose >[…] [Shavit-Stein et al. (2019) PLoS One 14, e0219453].
Electroretinogram (ERG): Mice were dark-adapted for 16 hours. ERG responses to light flashes at 5 increasing intensities (0.023, 0.249, 2.44, 7.8 and 23.5 cd-s/m^2) are recorded from both eyes simultaneously. Light-adapted ERG is similarly performed following 5 minutes light adaptation [Edelshtain et al. (2019) Algal Research 43, 101607].
C57BL/6 mice received either sham (PBS, n=5) or PARIN5 (100 nM in PBS, n=7) treatment for 7 days, starting at three days after diabetes induction by STZ injection. Retinal function was determined by ERG. Treatment included intraperitoneal (IP) injection (0.5 µl/gram, once a day) and eye drops (10 µl/eye, once a day).
In further experiments, STZ-induced diabetic were treated with eye drops, 100 nM PARIN5 in PBS (10 µl/eye, once a day), for 5 weeks. Non-diabetic mice and diabetic non-treated mice served as control.

ALS animal model SOD-1 = conditions: SOD-1 ALS animal model; cited from earlier work

N=C(N)c1ccc(CC(NC(=O)CNS(=O)(=O)c2ccc3ccccc3c2)C(=O)N2CCCCC2)cc1 (racemic) [NAPAP, Nα-(2-naphthyl-sulphonyl-glycyl)-DL-p-amidinophenylalanyl-piperidine]
Nerve conduction velocity in diabetic rats (diabetic rats): prevent the decreased nerve conduction velocity | Growth of glioma cell lines (glioma cell lines): significantly inhibits their growth

Cc1ccc(S(=O)(=O)N[C@H](C(=O)N[C@@H](CC(C)C)C(=O)N[C@@H](CC(=O)O)C(=O)N2CCC[C@H]2C(=O)N[C@@H](CCCNC(=N)N)C(=O)CCl)[C@@H](C)O)cc1 [PARIN5, ^37TLDPR^41-CMK] (Tos-TLDPR-CH2Cl)
Retinal function by ERG b-wave after 5 weeks of daily eye drops, versus control non-diabetic mice ([1]; 100 nM in PBS eye drops, 10 µl/eye once a day, 5 weeks, measured 2 and 5 weeks after STZ, all p>0.3, FIG. 6): no significant differences; also recorded: protected the mouse retinal function | Retinal function by ERG (b-wave) after 7-day treatment ([1]; 100 nM in PBS, IP injection 0.5 µl/gram plus eye drops 10 µl/eye, once a day, 7 days, from three days after STZ, versus sham PBS, FIG. 5): preserved mouse retinal function

CC(C)c1ccc(Cn2ccc3c4c(N)nc(NC5CC5)nc4ccc32)cc1.Cl.Cl [SCH79797, N3..Cyclopropyl-7..[[4..(1.. methylethyl)phenyl]methyl]-7H-pyrrolo[3,2-f]quinazoline-1,3-diamine dihydrochloride]
Life span of ALS model animals (ALS animal model SOD-1): increase the life span of these ALS model animals significantly

Cc1ccc(S(=O)(=O)N[C@@H](CCCCN)C(=O)CCl)cc1 [TLCK, N-alpha-tosyl-L-lysine chloromethyl ketone]
Life span of ALS model animals (ALS animal model SOD-1): increase the life span of these ALS model animals significantly
